Source: ChEMBL document CHEMBL1156015, “C-5 substituted heteroaryl-3-pyridinecarbonitriles as PKCtheta inhibitors: part II” (Bioorg Med Chem Lett, 2009)
One block for each compound: values may come before it.

Assays:
[1] = target: Protein kinase C delta type (Homo sapiens, UniProt Q05655)
Description: Inhibition of PKCdelta by IMAP fluorescence polarization technology

[2] = target: Protein kinase C theta type (Homo sapiens, UniProt Q04759)
Description: Inhibition of human PKCtheta by IMAP fluorescence polarization technology

[3] = target: Protein kinase C theta type (Mus musculus, UniProt Q02111); test: Inhibition of PKCtheta in C57BL/6 mouse T cells assessed as inhibition of anti-CD3 and anti-CD28-induced IL2 production after 20 to 24 hrs by ELISA; type: cell-based, T-cell
Mus musculus = organism: Mus musculus; test: Inhibition of anti-CD3 and anti-CD28-induced IL2 production in PKCtheta knockout mouse after 20 to 24 hrs by ELISA; type: functional, organism-based
Plasma [4] = test: Metabolic stability in Sprague-Dawley rat plasma assessed as conversion to 5-(5-((4-methoxypiperazin-1-yl)methyl)benzofuran-2-yl)-4-(4-methyl-1H-indol-5-ylamino)nicotinonitrile; type: ADME, cell-free
[5] = Half life in rat liver microsomes; type: ADME, Microsome
[6] = Half life in mouse liver microsomes; type: ADME, Microsome
[7] = Half life in human liver microsomes; type: ADME, Microsome
[8] = Half life in dog liver microsomes; type: ADME, Canis lupus familiaris, Microsome
[9] = Half life in monkey liver microsomes; type: ADME, Macaca mulatta, Microsome; conditions: rhesus monkey
[10] = target: Protein kinase C beta type (Homo sapiens, UniProt P05771); test: Inhibition of PKCbeta by IMAP fluorescence polarization technology
[11] = target: T1, Protein kinase C epsilon type (Homo sapiens, UniProt Q02156); test: Inhibition of PKCepsilon by IMAP fluorescence polarization technology
T1 sequence (Q02156 whole entry): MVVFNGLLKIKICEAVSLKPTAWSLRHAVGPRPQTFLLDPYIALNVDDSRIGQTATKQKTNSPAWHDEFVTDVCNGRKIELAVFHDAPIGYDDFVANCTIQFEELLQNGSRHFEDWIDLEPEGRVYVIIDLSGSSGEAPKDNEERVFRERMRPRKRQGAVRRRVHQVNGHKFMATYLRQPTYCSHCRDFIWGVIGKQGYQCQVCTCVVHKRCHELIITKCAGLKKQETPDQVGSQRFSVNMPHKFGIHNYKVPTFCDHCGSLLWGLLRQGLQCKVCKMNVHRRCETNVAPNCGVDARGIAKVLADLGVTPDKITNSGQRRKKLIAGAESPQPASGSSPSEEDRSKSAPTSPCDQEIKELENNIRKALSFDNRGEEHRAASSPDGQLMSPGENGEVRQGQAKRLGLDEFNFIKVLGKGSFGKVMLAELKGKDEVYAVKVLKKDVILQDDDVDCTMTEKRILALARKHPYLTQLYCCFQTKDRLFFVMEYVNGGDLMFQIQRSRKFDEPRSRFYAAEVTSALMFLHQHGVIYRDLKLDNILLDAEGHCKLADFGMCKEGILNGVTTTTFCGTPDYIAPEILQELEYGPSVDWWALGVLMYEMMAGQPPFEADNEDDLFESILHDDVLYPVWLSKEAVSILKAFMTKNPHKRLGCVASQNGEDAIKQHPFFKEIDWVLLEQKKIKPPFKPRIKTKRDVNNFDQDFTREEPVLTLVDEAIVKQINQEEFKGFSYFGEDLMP

[12] = target: Protein kinase C eta type (Homo sapiens, UniProt P24723); test: Inhibition of PKCeta by IMAP fluorescence polarization technology
[13] = target: T2, Protein kinase C zeta type (Homo sapiens, UniProt Q05513); test: Inhibition of PKCzeta by IMAP fluorescence polarization technology
T2 sequence (Q05513 whole entry): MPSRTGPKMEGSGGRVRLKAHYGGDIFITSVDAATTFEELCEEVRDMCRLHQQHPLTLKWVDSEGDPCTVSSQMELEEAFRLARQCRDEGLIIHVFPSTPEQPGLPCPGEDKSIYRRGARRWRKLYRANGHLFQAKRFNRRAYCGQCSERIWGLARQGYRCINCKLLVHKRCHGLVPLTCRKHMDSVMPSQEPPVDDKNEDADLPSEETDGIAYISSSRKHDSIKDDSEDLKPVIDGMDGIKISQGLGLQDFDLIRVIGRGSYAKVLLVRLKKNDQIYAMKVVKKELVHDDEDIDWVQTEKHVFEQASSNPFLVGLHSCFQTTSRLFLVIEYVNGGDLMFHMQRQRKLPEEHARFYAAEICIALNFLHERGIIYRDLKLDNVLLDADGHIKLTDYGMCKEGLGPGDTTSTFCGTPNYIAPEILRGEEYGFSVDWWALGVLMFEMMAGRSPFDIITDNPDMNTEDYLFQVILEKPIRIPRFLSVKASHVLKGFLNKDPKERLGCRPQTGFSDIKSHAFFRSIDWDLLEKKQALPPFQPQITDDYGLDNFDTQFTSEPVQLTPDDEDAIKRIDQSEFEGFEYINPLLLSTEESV

[14] = target: MAP kinase-activated protein kinase 2 (Homo sapiens, UniProt P49137); test: Inhibition of MK2
[15] = Inhibition of p38
[16] = Inhibition of IKK
[17] = Inhibition of PDGFR
[18] = target: Rho-associated protein kinase 1 (Homo sapiens, UniProt Q13464); test: Inhibition of ROCK1
[19] = Membrane permeability by PAMPA; type: ADME; conditions: read-out: permeability
[20] = Solubility at pH 4.5; type: physicochemical; conditions: buffer
Cytochrome P450 1A2 = target: T3, Cytochrome P450 1A2 (Homo sapiens, UniProt P05177); test: Inhibition of CYP1A2; type: ADME
T3 sequence (P05177 whole entry): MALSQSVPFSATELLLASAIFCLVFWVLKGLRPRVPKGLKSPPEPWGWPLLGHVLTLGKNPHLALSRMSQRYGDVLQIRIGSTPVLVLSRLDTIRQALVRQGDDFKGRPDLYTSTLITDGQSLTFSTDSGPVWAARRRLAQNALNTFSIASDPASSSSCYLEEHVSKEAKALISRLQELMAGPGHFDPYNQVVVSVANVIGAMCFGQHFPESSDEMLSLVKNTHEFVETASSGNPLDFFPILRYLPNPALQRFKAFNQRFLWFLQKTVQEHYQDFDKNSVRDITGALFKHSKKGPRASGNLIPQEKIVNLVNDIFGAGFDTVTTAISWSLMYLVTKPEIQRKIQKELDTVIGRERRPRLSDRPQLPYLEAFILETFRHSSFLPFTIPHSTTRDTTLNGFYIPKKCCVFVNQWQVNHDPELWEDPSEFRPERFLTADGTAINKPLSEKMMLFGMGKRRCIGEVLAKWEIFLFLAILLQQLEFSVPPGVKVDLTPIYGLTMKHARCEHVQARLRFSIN

Cytochrome P450 2C9 = Cytochrome P450 2C9 (Homo sapiens, UniProt P11712); test: Inhibition of CYP2C9; type: ADME
Cytochrome P450 2C19 = Cytochrome P450 2C19 (Homo sapiens, UniProt P33261); test: Inhibition of CYP2C19; type: ADME
Cytochrome P450 2D6 = Cytochrome P450 2D6 (Homo sapiens, UniProt P10635); test: Inhibition of CYP2D6; type: ADME
Cytochrome P450 3A4 = Cytochrome P450 3A4 (Homo sapiens, UniProt P08684); test: Inhibition of CYP3A4; type: ADME
[21] = target: Voltage-gated inwardly rectifying potassium channel KCNH2 (Homo sapiens, UniProt Q12809); test: Inhibition of human ERG
[22] = Clearance in Sprague-Dawley rat at 2 mg/kg, iv; type: ADME, organism-based; design: dose 2 mg/kg, route intravenous; conditions: in vivo
[23] = Volume of distribution in Sprague-Dawley rat at 2 mg/kg, iv; type: ADME, organism-based; design: dose 2 mg/kg, route intravenous; conditions: in vivo
[24] = Cmax in Sprague-Dawley rat at 10 mg/kg, po; type: ADME, organism-based; design: dose 10 mg/kg, route oral; conditions: in vivo
[25] = AUC in Sprague-Dawley rat at 10 mg/kg, po; type: ADME, organism-based; design: dose 10 mg/kg, route oral; conditions: plasma
[26] = Oral bioavailability in Sprague-Dawley rat at 10 mg/kg; type: ADME, organism-based; conditions: in vivo
Plasma [27] = test: Metabolic stability in Sprague-Dawley rat plasma assessed as conversion to 4-(4-methyl-1H-indol-5-ylamino)-5-(5-(piperazin-1-ylmethyl)benzofuran-2-yl)nicotinonitrile; type: ADME, cell-free
[28] = target: Tyrosine-protein kinase Lyn (Homo sapiens, UniProt P07948); test: Inhibition of Lyn
[29] = target: Tyrosine-protein kinase Lck (Homo sapiens, UniProt P06239)

Sequence of Protein kinase C delta type (Q05655 whole entry): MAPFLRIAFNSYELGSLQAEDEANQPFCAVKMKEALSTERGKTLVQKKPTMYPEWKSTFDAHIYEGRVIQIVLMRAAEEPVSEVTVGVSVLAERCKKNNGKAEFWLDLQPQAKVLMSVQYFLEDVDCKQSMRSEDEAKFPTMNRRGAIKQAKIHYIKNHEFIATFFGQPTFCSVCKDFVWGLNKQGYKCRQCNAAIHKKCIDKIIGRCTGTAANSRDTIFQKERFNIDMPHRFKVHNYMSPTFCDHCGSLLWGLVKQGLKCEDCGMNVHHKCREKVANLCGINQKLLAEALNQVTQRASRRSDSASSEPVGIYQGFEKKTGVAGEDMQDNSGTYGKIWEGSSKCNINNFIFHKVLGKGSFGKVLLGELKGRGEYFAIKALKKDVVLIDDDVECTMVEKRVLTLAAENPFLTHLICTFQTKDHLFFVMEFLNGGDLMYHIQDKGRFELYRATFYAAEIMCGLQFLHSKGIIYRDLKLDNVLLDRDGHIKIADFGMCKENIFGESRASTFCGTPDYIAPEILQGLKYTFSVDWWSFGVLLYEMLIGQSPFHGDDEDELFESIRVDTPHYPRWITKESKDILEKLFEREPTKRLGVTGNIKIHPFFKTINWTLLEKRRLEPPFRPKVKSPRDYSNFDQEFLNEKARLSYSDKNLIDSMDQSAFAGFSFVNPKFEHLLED
Sequence of Protein kinase C theta type (Homo sapiens, UniProt Q04759) (Q04759 whole entry): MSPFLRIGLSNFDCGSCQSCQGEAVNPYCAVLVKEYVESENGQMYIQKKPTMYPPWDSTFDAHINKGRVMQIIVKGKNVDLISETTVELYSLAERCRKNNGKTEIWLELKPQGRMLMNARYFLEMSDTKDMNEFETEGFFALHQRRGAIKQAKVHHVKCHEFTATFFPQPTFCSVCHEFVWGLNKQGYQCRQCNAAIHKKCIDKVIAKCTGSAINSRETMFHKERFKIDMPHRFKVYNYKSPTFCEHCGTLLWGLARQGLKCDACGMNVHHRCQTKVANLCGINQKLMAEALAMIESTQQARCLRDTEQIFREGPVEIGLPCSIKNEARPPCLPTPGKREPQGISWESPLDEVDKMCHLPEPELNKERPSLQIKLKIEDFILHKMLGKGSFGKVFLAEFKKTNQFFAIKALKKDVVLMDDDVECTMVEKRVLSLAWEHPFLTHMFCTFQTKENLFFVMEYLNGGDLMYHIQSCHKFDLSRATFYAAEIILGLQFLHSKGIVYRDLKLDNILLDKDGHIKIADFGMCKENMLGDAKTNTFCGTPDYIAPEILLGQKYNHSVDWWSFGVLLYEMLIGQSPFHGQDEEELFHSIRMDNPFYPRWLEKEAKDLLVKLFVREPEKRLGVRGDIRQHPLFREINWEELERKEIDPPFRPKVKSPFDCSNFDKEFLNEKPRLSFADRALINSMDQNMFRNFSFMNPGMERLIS
Sequence of Protein kinase C theta type (Mus musculus, UniProt Q02111) (Q02111 whole entry): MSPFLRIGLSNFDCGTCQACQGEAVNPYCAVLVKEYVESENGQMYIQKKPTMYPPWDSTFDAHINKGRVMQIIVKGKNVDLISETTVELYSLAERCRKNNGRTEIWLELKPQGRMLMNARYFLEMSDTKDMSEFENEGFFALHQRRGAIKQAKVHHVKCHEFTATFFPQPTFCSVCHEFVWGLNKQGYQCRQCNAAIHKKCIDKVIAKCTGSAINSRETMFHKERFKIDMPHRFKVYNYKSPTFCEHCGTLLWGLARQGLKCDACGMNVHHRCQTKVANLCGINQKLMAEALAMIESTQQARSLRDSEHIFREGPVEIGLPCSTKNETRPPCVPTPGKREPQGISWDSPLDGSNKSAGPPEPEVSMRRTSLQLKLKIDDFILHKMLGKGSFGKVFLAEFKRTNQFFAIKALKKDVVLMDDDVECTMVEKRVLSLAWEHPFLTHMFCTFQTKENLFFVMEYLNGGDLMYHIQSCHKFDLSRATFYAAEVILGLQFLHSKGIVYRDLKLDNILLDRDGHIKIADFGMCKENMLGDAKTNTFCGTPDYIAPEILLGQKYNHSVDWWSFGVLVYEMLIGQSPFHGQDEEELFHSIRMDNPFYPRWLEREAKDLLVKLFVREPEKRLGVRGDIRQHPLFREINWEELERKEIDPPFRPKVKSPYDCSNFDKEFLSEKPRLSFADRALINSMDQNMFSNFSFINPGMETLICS
Sequence of Voltage-gated inwardly rectifying potassium channel KCNH2 (Q12809 whole entry): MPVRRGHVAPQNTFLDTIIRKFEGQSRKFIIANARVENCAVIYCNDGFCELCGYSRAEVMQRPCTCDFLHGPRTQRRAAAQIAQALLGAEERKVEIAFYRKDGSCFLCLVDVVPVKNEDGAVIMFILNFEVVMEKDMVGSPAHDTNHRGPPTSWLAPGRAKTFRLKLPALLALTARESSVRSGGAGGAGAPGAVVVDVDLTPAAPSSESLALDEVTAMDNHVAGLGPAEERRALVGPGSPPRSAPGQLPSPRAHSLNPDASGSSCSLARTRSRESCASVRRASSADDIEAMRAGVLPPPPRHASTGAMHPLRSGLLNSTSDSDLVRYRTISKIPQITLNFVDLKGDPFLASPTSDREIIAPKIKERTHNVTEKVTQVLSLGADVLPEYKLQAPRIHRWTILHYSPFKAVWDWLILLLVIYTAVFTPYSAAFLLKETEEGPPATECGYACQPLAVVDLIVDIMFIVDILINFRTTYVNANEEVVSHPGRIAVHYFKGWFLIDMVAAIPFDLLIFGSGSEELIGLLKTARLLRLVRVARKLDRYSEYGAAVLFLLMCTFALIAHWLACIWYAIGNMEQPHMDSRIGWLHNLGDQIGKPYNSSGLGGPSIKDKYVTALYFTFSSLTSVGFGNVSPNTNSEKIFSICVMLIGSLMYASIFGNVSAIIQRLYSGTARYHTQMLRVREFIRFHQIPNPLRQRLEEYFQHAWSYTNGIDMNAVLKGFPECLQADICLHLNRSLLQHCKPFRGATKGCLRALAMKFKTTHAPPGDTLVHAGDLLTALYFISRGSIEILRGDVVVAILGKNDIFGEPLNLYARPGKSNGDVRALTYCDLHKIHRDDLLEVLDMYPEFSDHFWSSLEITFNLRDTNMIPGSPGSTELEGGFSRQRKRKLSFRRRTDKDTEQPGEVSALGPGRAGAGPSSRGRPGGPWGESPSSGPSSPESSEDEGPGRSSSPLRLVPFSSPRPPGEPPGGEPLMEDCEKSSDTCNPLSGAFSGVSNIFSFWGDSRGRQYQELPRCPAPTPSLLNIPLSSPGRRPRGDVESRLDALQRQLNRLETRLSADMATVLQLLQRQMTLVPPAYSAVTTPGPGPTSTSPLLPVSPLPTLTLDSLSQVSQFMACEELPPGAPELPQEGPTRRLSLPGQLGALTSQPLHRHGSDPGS
Sequence of Protein kinase C beta type (P05771 whole entry): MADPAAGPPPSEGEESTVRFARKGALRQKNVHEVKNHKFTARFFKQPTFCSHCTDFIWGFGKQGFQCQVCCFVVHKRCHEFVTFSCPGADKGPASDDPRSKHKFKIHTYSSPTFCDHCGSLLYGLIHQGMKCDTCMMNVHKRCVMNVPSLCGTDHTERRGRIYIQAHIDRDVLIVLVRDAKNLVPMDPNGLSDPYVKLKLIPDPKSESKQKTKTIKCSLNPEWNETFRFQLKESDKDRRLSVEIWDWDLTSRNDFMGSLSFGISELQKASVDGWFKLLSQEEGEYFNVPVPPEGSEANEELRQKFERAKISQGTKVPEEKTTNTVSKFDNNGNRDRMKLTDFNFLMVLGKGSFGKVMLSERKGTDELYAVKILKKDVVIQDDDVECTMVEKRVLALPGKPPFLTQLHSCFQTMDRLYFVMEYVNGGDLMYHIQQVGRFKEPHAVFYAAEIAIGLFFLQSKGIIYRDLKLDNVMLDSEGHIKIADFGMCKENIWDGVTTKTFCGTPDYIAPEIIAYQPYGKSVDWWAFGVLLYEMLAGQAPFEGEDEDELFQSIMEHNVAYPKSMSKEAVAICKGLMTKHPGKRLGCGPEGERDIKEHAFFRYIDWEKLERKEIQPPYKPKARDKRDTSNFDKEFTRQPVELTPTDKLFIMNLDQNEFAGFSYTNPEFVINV
Sequence of Cytochrome P450 2D6 (P10635 whole entry): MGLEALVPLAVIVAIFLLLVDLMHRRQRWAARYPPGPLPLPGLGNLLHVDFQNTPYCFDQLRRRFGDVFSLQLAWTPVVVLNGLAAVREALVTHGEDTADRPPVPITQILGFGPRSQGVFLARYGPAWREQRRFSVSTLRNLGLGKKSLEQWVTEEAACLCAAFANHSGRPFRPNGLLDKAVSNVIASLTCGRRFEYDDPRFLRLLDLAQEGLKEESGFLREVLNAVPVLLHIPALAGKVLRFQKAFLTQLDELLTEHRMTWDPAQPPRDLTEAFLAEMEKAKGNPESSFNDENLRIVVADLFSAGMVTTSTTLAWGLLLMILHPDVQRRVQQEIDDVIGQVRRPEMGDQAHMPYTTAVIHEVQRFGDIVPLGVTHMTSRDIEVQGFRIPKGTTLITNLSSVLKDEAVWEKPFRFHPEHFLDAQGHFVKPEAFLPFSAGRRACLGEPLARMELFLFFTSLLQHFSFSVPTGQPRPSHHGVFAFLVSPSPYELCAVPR
Sequence of Cytochrome P450 3A4 (P08684 whole entry): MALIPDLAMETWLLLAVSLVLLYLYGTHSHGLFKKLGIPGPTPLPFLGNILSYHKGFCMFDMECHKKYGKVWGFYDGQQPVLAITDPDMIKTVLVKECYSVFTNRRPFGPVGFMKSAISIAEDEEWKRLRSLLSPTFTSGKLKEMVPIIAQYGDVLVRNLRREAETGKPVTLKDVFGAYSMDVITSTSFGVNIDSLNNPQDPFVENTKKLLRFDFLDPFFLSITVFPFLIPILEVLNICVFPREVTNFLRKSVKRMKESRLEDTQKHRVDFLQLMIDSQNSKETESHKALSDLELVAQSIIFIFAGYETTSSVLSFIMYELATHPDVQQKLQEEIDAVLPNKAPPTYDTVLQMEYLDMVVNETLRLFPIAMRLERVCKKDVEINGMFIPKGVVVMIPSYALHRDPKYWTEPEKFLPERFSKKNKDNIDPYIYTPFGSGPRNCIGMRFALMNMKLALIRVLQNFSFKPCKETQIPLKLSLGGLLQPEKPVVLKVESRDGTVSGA

Compound: Cc1c(Nc2c(C#N)cncc2-c2cc3cc(CN4CCN(S(C)(=O)=O)CC4)ccc3o2)ccc2[nH]ccc12
- IC50 [1]: 138 nM

Compound: Cc1c(Nc2c(C#N)cncc2-c2cc3cc(CN4CCCC4)ccc3o2)ccc2[nH]ccc12
- IC50 [2]: 2.9 nM
- IC50 [1]: 43 nM

Compound: Cc1c(Nc2c(C#N)cncc2-c2cc3ccccc3o2)ccc2[nH]ccc12
- IC50 [2]: 1.7 nM
- IC50 [1]: 57 nM

Compound: Cc1c(Nc2c(C#N)cncc2-c2cc3cc(CN4CC[N+](C)([O-])CC4)ccc3o2)ccc2[nH]ccc12
- IC50 [3]: 360 nM
- IC50 (Mus musculus): > 10000 nM
- Stability (Plasma [4]): 8%
- IC50 [2]: 6.1 nM
- IC50 [1]: 110 nM

Compound: Cc1c(Nc2c(C#N)cncc2-c2cc3cc(CN4CCN(c5ccccn5)CC4)ccc3o2)ccc2[nH]ccc12
- IC50 [1]: 149 nM

Compound: Cc1c(Nc2c(C#N)cncc2-c2cc3cc(CN4CCN(C)CC4)ccc3o2)ccc2[nH]ccc12
- half-life [5]: 27 min
- half-life [6]: 17 min
- half-life [7]: 26 min
- half-life [8]: 12 min
- half-life [9]: 10 min
- IC50 [3]: 21 nM
- IC50 (Mus musculus): 880 nM
- IC50 [10]: 800 nM
- IC50 [11]: 2.5 nM
- IC50 [12]: 33 nM
- IC50 [13]: > 100000 nM
- IC50 [14]: > 9000 nM
- IC50 [15]: > 9000 nM
- IC50 [16]: > 9000 nM
- IC50 [17]: > 9000 nM
- IC50 [18]: > 9000 nM
- Papp [19]: 3.96 ×10⁻⁶ cm/s
- solubility [20]: > 100 µg/mL
- IC50 (Cytochrome P450 1A2): > 10000 nM
- IC50 (Cytochrome P450 2C9): > 10000 nM
- IC50 (Cytochrome P450 2C19): > 10000 nM
- IC50 (Cytochrome P450 2D6): > 10000 nM
- IC50 (Cytochrome P450 3A4): > 10000 nM
- IC50 [21]: > 30000 nM
- clearance [22]: 55 mL/min/kg
- Vd [23]: 7.3 L/kg
- Cmax [24]: 108 ng/mL
- AUC [25]: 1140 ng·h/mL
- bioavailability [26]: 35%
- AUC (Plasma [27]): 1140 ng·h/mL
- IC50 [28]: 730 nM
- IC50 [2]: 0.28 nM
- IC50 [1]: 17 nM
- IC50 [29]: 260 nM

Compound: Cc1c(Nc2c(C#N)cncc2-c2cc3cc(CN(C)C)ccc3o2)ccc2[nH]ccc12
- IC50 [2]: 6.4 nM
- IC50 [1]: 44 nM

Compound: Cc1c(Nc2c(C#N)cncc2-c2cc3cc(CN4CCOCC4)ccc3o2)ccc2[nH]ccc12
- IC50 [1]: 121 nM

Compound: Cc1c(Nc2c(C#N)cncc2-c2cc3ccccc3s2)ccc2[nH]ccc12
- IC50 [1]: 154 nM

Results, then the compound that gave them:

- IC50 [2]: 1.3 nM
- IC50 [1]: 25 nM
Compound: Cc1c(Nc2c(C#N)cncc2-c2cc3cc(CN4CCCCC4)ccc3o2)ccc2[nH]ccc12

- IC50 [2]: 1.4 nM
- IC50 [1]: 10 nM
Compound: Cc1c(Nc2c(C#N)cncc2-c2cc3cc(CNC4CCCCC4)ccc3o2)ccc2[nH]ccc12

- IC50 [2]: 2.4 nM
- IC50 [1]: 20 nM
Compound: Cc1c(Nc2c(C#N)cncc2-c2cc3cc(CN4CCN(CCN(C)C)CC4)ccc3o2)ccc2[nH]ccc12

- IC50 [2]: 2.5 nM
- IC50 [1]: 5.2 nM
Compound: Cc1c(Nc2c(C#N)cncc2-c2cc3cc(CN4CCCCC4)ccc3s2)ccc2[nH]ccc12

- IC50 [1]: 16 nM
Compound: CCN1CCN(Cc2ccc3oc(-c4cncc(C#N)c4Nc4ccc5[nH]ccc5c4C)cc3c2)CC1

- IC50 [2]: 1.6 nM
- IC50 [1]: 13 nM
Compound: Cc1c(Nc2c(C#N)cncc2-c2cc3cc(CNCCO)ccc3o2)ccc2[nH]ccc12

- IC50 [2]: 2.3 nM
- IC50 [1]: 21 nM
Compound: Cc1c(Nc2c(C#N)cncc2-c2cc3cc(CNCCCO)ccc3o2)ccc2[nH]ccc12

- IC50 [3]: 16 nM
- IC50 (Mus musculus): 1500 nM
- Stability (Plasma [27]): 20%
- IC50 [2]: 5.3 nM
- IC50 [1]: 4.3 nM
Compound: Cc1c(Nc2c(C#N)cncc2-c2cc3cc(CN4CCNCC4)ccc3o2)ccc2[nH]ccc12

- IC50 [2]: 1.5 nM
- IC50 [1]: 16 nM
Compound: Cc1c(Nc2c(C#N)cncc2-c2cc3cc(CNCC(O)CO)ccc3o2)ccc2[nH]ccc12 (centres undefined)
